Laboratory results as given in US20260317304A1, “TEAD INHIBITORS AND METHODS OF USE” (Sporos BioDiscovery, Inc., priority 2022, published 2026).
pEC50: −log10 of the molar value.

Key:
MSTO-211H xenograft = test: Mouse xenograft MSTO-211H tumors, study part 1; type: in vivo, BALB/c nude mice; settings: PO; for Tumor size (mean ± SEM) / T/C / TGI: BID; for Tumor Volume (mean ± SEM): BID (Table 16)
Text: This study evaluated the in vivo anti-tumor efficacy of test compounds in BALB/c nude mice for treatment of MSTO-211H xenograft of lung cancer.
• Species: Mus Musculus • Strain: BALB/c nude • Age: 6-8 weeks • Sex: female • Body weight: 18-22 g • Number of animals inoculated with tumor: 80 mice • Number of animals enrolled in the treatment: 36 mice • Number of unenrolled animals: 44 mice • Animal supplier: Beijing Vital River Biotechnology Experimental Animal Co. Ltd Certification number: 20170011010591
The MSTO-211H tumor cells were maintained in RPMI 1640 medium supplemented with 10% Fetal bovine serum and 1% Antibiotic-Antimycotic at 37° C. in an atmosphere of 5% CO2 in air. The tumor cells were routinely subcultured twice weekly by trypsin-EDTA. The cells growing in an exponential growth phase with 95% cell survival or above were harvested, and counted for tumor inoculation.
Each mouse was inoculated subcutaneously at the right flank with MSTO-211H tumor cells (5×10^6+50% matrigel/0.2 mL) for tumor development. Animals were marked with earrings with unique 6 significant figure number for identification. The treatments of part 1 were started on day 5 after cell inoculation when the average tumor volume reached 181 mm^3. The treatments of part 2 were started on day 16 after cell inoculation when the average tumor volume reached 254 mm^3. The treatments of part 3 were started on day 33 after cell inoculation when the average tumor volume reached 969 mm^3.
The major endpoint was to determine if the tumor growth could be delayed. Tumor volume was measured twice a week in two dimensions using a caliper, and the volume was expressed in mm^3 using the formula: V=0.5 a×b^2 where a and b are the long and short diameters of the tumor, respectively. The tumor size was then used for calculations of T/C value. The TGI value (in percent) or the T/C value (in percent) is an indication of antitumor effectiveness; T and C are the mean tumor volumes or tumor weights of the treated and control groups, respectively, on a given day.
TGI was calculated for each group using the formula: TGI (%)=[1−(Ti−T0)/(Vi−V0)]×100; Ti is the average tumor volume of a treatment group on a given day, T0 is the average tumor volume of the treatment group on the day of treatment start, Vi is the average tumor volume of the vehicle control group on the same day with Ti, and V0 is the average tumor volume of the vehicle group on the day of treatment start.
Relative T/C (%)=TRTV/CRTV×100 (RTV (%)=Vt/V0×100, Vt is the average tumor volume on a given day, V0 is the average tumor volume on the first day of treatment. TRTV is the RTV of a treatment group, and the CRTV is the RTV of the vehicle control group.)
The antitumor effectiveness of part 1 study was analyzed on PG-D31 when vehicle group reached 681 mm^3.
Summary statistics, including mean and the standard error of the mean (SEM), were provided for the tumor volume of each group at each time point.
Statistical analysis of difference in tumor volume among the groups was conducted on the data obtained at the end of the study.
One-tailed T test was performed to compare tumor volumes between two groups. All data are analyzed using GraphPad Prism 6.0. p<0.05 is considered to be statistically significant.

SDM103T2 cells = test: SDM103T2 proliferation and cell viability assay (CTG); type: cell-based; settings: 144 hours
Experimental: SDM103T2 cells were trypsinised, counted and plated at 800 cells/well in 200 μl of growth media in 96 well flat bottom tissue culture treated plates. The plated cells were incubated overnight at 37° C., 5% CO2 before being treated with compounds in triplicate for each assay point. 50 μl of the serially diluted compound was added to each well giving a final DMSO concentration of 0.5% per well and a total volume of 250 μl per well. The treated cells were incubated for 144 hours (6 days) at 37° C., 5% CO2. Following compound treatment the remaining viable cells were detected using the Promega CellTiter-Glo 2.0 assay as follows: 150 μl of media was removed from each of the wells to be assayed and 100 μl of room temperature CellTiter-Glo 2.0 reagent was added. The plate was placed on an orbital shaker at 500 rpm at room temperature for 2 minutes, and then incubated without shaking for a further 10 minutes at room temperature. 150 μl of cell lysate was removed from each well and dispensed into a single well of a white opaque 96 well plate. Luminescence at 545 nm was read using a BMG CLARIOstar plate reader. The luminescent signal was directly proportional to number of viable cells, the percent of viable cells relative to the DMSO control was then calculated for each assay point. Percent viability relative to DMSO control was plotted against compound concentration and a curve fitted with non-linear regression in GraphPad Prism software. EC50 and absolute IC50 values were calculated using GraphPad Prism software as follows: For EC50 values a non-constrained four-parameter logistic curve fit was used (Sigmoidal, 4PL, X is concentration). For Absolute IC50 values the baseline was constrained to Y=0 and top at 100 (Absolute IC50, X is concentration). Area Under the Curve (AUC): Prism computes area-under-the-curve by the trapezoidal method. The analysis sees a fitted curve as simply a series of connected XY points. Prism simply computes the area under the “curve” defined by connecting the points by straight lines. The units of the AUC are the units of the Y axis times units of the X axis.
For EC50 data, the symbol “A” indicates a value of less than 0.2 μM; the symbol “B” indicates a value in the range of from 0.2 μM up to 1 μM; and the symbol “C” indicates a value of greater than 1 μM.

| Compound | Tumor size (mean ± SEM) (MSTO-211H xenograft; part 1, day 0, 12.5 mg/kg) [mm^3] | Tumor size (mean ± SEM) (MSTO-211H xenograft; part 1, day 3, 12.5 mg/kg) [mm^3] | Tumor size (mean ± SEM) (MSTO-211H xenograft; part 1, day 6, 12.5 mg/kg) [mm^3] | Tumor size (mean ± SEM) (MSTO-211H xenograft; part 1, day 10, 12.5 mg/kg) [mm^3] | Tumor size (mean ± SEM) (MSTO-211H xenograft; part 1, day 13, 12.5 mg/kg) [mm^3] | Tumor size (mean ± SEM) (MSTO-211H xenograft; part 1, day 17, 12.5 mg/kg) [mm^3] | Tumor size (mean ± SEM) (MSTO-211H xenograft; part 1, day 20, 12.5 mg/kg) [mm^3] | Tumor size (mean ± SEM) (MSTO-211H xenograft; part 1, day 23, 12.5 mg/kg) [mm^3] | Tumor size (mean ± SEM) (MSTO-211H xenograft; part 1, day 27, 12.5 mg/kg) [mm^3] | T/C (MSTO-211H xenograft; part 1, day 31, 12.5 mg/kg) [%] | TGI (MSTO-211H xenograft; part 1, day 31, 12.5 mg/kg) [%] | Tumor size (mean ± SEM) (MSTO-211H xenograft; part 1, day 31, 12.5 mg/kg) [mm^3] | Tumor Volume (mean ± SEM) (MSTO-211H xenograft; part 1, day 31, 12.5 mg/kg) [mm^3] | pEC50 (SDM103T2 cells) |
| --- | --- | --- | --- | --- | --- | --- | --- | --- | --- | --- | --- | --- | --- | --- |
| Cn1cnc(-c2cc(C3(C)NC(=O)NC3=O)ccc2Nc2ccc(C(F)(F)F)cc2)c1 (single isomer, unassigned) [Compound 15, 5-methyl-5-(3-(1-methyl-1H-imidazol-4-yl)-4-((4-(trifluoromethyl)phenyl)amino)phenyl)imidazolidine-2,4-dione] | 181 ± 11 | 216 ± 27 | 175 ± 19 | 154 ± 5 | 111 ± 13 | 88 ± 12 | 105 ± 6 | 134 ± 10 | 166 ± 20 | 23.57 | 104.12 | 161 ± 12 | 161 ± 12 | > 6.70 |
| C=CC(=O)Nc1ccc(C)c(Oc2ccc(Cl)cc2)c1 [Compound 1-3, reference compound] | – | – | – | – | – | – | – | – | – | – | – | – | – | > 6.70 |
| FC(F)(F)c1ccc(CN2CCC(C3CC(Br)=NO3)CC2)cc1 (centres unmarked) [Compound 1-2, reference compound] | – | – | – | – | – | – | – | – | – | – | – | – | – | < 6.00 |
| Cn1nnc(-c2cc([C@]3(C)CCNC3=O)ccc2Nc2ccc(C(F)(F)F)cc2)n1 (stereo in doubt) [Compound 20, 3-methyl-3-(3-(2-methyl-2H-tetrazol-5-yl)-4-((4-(trifluoromethyl)phenyl)amino)phenyl) pyrrolidin-2-one] | 181 ± 7 | 183 ± 26 | 188 ± 52 | 117 ± 44 | 92 ± 28 | 66 ± 10 | 60 ± 13 | 59 ± 16 | 75 ± 18 | 8.81 | 124.25 | 60 ± 11 | 60 ± 11 | > 6.70 |
| Cn1cnc(-c2cc([C@@]3(C)CCNC3=O)ccc2Nc2ccc(C(F)(F)F)cc2)c1 (single isomer, unassigned) [Compound 5, 3-methyl-3-(3-(1-methyl-1H-imidazol-4-yl)-4-((4-(trifluoromethyl)phenyl)amino)phenyl)pyrrolidin-2-one] | 181 ± 11 | 241 ± 31 | 230 ± 30 | 151 ± 18 | 117 ± 10 | 63 ± 13 | 72 ± 15 | 64 ± 7 | 79 ± 13 | 11.82 | 120.17 | 81 ± 18 | 81 ± 18 | > 6.70 |
